From ChEMBL document CHEMBL3739302, “Synthesis of 5-trifluoromethyl-2-sulfonylpyridine PPARβ/δ antagonists: Effects on the affinity and selectivity towards PPARβ/δ” (Bioorg Med Chem, 2016)
One block for each compound: values may come before it. Activity calls are given as the source filed them. The rule behind the calls is not given here.

Legend:
[1] = biological target: T1, Peroxisome proliferator-activated receptor alpha (Homo sapiens) (UniProt Q07869); assay: Binding affinity to GST-PPAR-alpha LBP (unknown origin) at 1 uM by TR-FRET assay
T1 sequence (whole entry): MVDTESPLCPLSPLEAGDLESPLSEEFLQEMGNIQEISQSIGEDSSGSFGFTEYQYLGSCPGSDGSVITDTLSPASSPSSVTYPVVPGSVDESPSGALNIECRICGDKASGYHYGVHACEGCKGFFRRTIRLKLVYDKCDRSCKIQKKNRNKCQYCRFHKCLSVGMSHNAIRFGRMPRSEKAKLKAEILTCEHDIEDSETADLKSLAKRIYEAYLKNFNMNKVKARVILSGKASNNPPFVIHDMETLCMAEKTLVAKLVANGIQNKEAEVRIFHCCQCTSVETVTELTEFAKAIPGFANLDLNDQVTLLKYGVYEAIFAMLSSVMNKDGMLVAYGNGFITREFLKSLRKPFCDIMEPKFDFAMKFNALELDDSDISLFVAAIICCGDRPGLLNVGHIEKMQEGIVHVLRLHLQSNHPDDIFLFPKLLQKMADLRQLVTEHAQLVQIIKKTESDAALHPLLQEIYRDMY

[2] = biological target: T2, Peroxisome proliferator-activated receptor gamma (Homo sapiens) (UniProt P37231); assay: Binding affinity to GST-PPAR-gamma LBP (unknown origin) at 1 uM after 1 hr by TR-FRET assay
T2 sequence (whole entry): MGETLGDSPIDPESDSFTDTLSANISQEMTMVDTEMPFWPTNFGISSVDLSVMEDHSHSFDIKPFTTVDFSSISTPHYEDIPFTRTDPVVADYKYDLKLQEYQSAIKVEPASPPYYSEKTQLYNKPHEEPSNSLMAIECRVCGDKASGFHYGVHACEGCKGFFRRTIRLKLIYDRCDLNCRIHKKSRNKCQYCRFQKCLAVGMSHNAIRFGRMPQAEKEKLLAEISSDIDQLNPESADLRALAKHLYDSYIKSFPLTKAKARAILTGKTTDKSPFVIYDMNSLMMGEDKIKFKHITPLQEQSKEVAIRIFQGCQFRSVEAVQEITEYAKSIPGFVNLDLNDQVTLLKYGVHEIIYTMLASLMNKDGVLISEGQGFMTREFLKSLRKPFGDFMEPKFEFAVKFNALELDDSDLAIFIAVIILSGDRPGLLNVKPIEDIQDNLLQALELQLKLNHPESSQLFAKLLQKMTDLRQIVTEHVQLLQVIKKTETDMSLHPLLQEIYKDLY

[3] = biological target: T3, Peroxisome proliferator-activated receptor delta (Homo sapiens, UniProt Q03181); assay: Binding affinity to GST-PPAR-beta/delta LBP (unknown origin) after 40 mins by TR-FRET assay
T3 sequence (Q03181 whole entry): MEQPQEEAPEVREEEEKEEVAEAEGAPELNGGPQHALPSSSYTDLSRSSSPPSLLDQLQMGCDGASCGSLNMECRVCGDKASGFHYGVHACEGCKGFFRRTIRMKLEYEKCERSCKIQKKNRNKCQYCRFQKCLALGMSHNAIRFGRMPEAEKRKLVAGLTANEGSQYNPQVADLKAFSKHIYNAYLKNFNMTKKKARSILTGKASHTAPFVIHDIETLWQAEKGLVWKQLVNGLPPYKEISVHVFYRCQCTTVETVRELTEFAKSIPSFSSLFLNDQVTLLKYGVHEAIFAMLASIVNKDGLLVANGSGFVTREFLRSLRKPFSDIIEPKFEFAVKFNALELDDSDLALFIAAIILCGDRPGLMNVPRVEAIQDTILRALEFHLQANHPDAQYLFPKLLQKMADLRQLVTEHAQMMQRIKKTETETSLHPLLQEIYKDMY

[4] = biological target: T3, Peroxisome proliferator-activated receptor delta; assay: Binding affinity to GST-PPAR-beta/delta LBP (unknown origin) after 1 hr by TR-FRET assay
[5] = biological target: T3, Peroxisome proliferator-activated receptor delta; assay: Binding affinity to GST-PPAR-beta/delta LBP (unknown origin) after 2 hrs by TR-FRET assay
[6] = biological target: T3, Peroxisome proliferator-activated receptor delta; assay: Binding affinity to GST-PPAR-beta/delta LBP (unknown origin) after 3 hrs by TR-FRET assay
[7] = biological target: T3, Peroxisome proliferator-activated receptor delta; assay: Binding affinity to GST-PPAR-beta/delta LBP (unknown origin) after 24 hrs by TR-FRET assay
[8] = biological target: T1, Peroxisome proliferator-activated receptor alpha (Homo sapiens); assay: Binding affinity to GST-PPAR-alpha LBP (unknown origin) at 1 and 10 uM after 1 hr by TR-FRET assay
[9] = biological target: T2, Peroxisome proliferator-activated receptor gamma (Homo sapiens); assay: Binding affinity to GST-PPAR-gamma LBP (unknown origin) at 10 uM after 1 hr by TR-FRET assay
[10] = biological target: T1, Peroxisome proliferator-activated receptor alpha (Homo sapiens); assay: Binding affinity to GST-PPAR-alpha LBP (unknown origin) at 1 and 10 uM after 24 hrs by TR-FRET assay
[11] = biological target: T2, Peroxisome proliferator-activated receptor gamma (Homo sapiens); assay: Binding affinity to GST-PPAR-gamma LBP (unknown origin) at 1 uM after 24 hrs by TR-FRET assay
[12] = biological target: T2, Peroxisome proliferator-activated receptor gamma (Homo sapiens); assay: Binding affinity to GST-PPAR-gamma LBP (unknown origin) at 10 uM after 24 hrs by TR-FRET assay
[13] = biological target: T4, Peroxisome proliferator-activated receptor delta (Homo sapiens) (UniProt Q03181); assay: Binding affinity to GST-PPAR-beta/delta LBP (unknown origin) at 1 uM after 1 hr by TR-FRET assay
T4 sequence (whole entry): T3 sequence (Q03181 whole entry)

[14] = biological target: T3, Peroxisome proliferator-activated receptor delta; assay: Binding affinity to GST-PPAR-beta/delta LBP (unknown origin) after 20 mins by TR-FRET assay
[15] = biological target: T1, Peroxisome proliferator-activated receptor alpha (Homo sapiens); assay: Binding affinity to GST-PPAR-alpha LBP (unknown origin) at 1 uM after 2 hrs by TR-FRET assay

Activity [1]: Active
Structure (SMILES): O=C(NCCS(=O)(=O)c1ccc(C(F)(F)F)cn1)c1ccccc1

Activity [1]: Active
Structure (SMILES): O=C(COc1ccccc1)NCCS(=O)(=O)c1ccc(C(F)(F)F)cn1

Activity [1]: Active
Activity [2]: Active
Structure (SMILES): CN(CCS(=O)(=O)c1ccc(C(F)(F)F)cn1)C(=O)c1ccc2ccccc2c1

Activity [1]: Active
Structure (SMILES): O=C(NCCS(=O)(=O)c1ccc(C(F)(F)F)cn1)c1cccnc1

Activity [1]: Active
Structure (SMILES): O=C(NCCS(=O)(=O)c1ccc(C(F)(F)F)cn1)c1cccc2cccnc12

Activity [1]: Active
Structure (SMILES): O=C(CCCS(=O)(=O)c1ccc(C(F)(F)F)cn1)c1ccc2ccccc2c1

Activity [2]: Active
IC50 [3]: 17600 nM
IC50 [4]: 6820 nM
IC50 [5]: 2320 nM
IC50 [6]: 1430 nM
IC50 [7]: 241 nM
Activity [8]: inactive
Activity [9]: Active
Activity [10]: inactive
Activity [11]: Active
Activity [12]: Active
Structure (SMILES): O=C(NCCS(=O)(=O)c1ccc(C(F)(F)F)cn1)c1cnc2ccccc2c1

Activity [13]: Active
Activity [1]: Active
Activity [2]: Active
Structure (SMILES): O=C(NCCS(=O)(=O)c1ccc(C(F)(F)F)cn1)c1cccc2ccccc12

Activity [2]: Active
IC50 [14]: 1330 nM
IC50 [3]: 825 nM
IC50 [4]: 648 nM
IC50 [5]: 284 nM
IC50 [6]: 233 nM
IC50 [7]: 1.21 nM
Activity [8]: inactive
Activity [9]: Active
Activity [10]: inactive
Activity [12]: Active
Structure (SMILES): O=C(NCCS(=O)(=O)c1ccc(C(F)(F)F)cn1)c1ccc(Cl)cc1

Activity [1]: Active
Structure (SMILES): O=C(NCCS(=O)(=O)c1ccc(C(F)(F)F)cn1)c1cccc2cnccc12

Activity [1]: Active
Activity [2]: Active
Structure (SMILES): O=C(NCCS(=O)(=O)c1ccc(C(F)(F)F)cn1)c1ccc2ccncc2c1

Activity [1]: Active
Structure (SMILES): O=C(NCCS(=O)(=O)c1ccc(C(F)(F)F)cn1)c1cc2ccccc2cn1

Activity [1]: Active
Structure (SMILES): O=C(c1ccc2ccccc2c1)N(CCS(=O)(=O)c1ccc(C(F)(F)F)cn1)Cc1ccccc1

Activity [1]: Active
Structure (SMILES): O=C(NCCS(=O)(=O)c1ccc(C(F)(F)F)cn1)c1cncc2ccccc12

Activity [13]: Active
Activity [1]: Active
Structure (SMILES): COc1ccc(C(=O)NCCS(=O)(=O)c2ccc(C(F)(F)F)cn2)cc1

Activity [1]: Active
Structure (SMILES): CC(C)(C)C(=O)NCCS(=O)(=O)c1ccc(C(F)(F)F)cn1

Activity [13]: Active
Activity [1]: Active
Activity [2]: Active
Structure (SMILES): O=C(NCCS(=O)(=O)c1ccc(C(F)(F)F)cn1)c1ccc(F)cc1

Activity [2]: Active
IC50 [14]: 949 nM
IC50 [3]: 581 nM
IC50 [4]: 423 nM
IC50 [5]: 301 nM
IC50 [6]: 284 nM
Activity [8]: inactive
Activity [10]: inactive
Structure (SMILES): Cc1nc(-c2ccc(C(F)(F)F)cc2)sc1C(=O)NCCS(=O)(=O)c1ccc(C(F)(F)F)cn1

Activity [1]: Active
Structure (SMILES): O=C(NCCS(=O)(=O)c1ccc(C(F)(F)F)cn1)c1ccc2cccnc2c1

Activity [1]: Active
Activity [15]: Active
Structure (SMILES): O=C(NCCS(=O)(=O)c1ccc(C(F)(F)F)cn1)c1ccnc2ccccc12

Activity [1]: Active
Structure (SMILES): O=C(CCCS(=O)(=O)c1ccc(C(F)(F)F)cn1)c1cccc2ccccc12

Activity [1]: Active
Structure (SMILES): O=C(NCCS(=O)(=O)c1ccc(C(F)(F)F)cn1)c1ccc2ncccc2c1

Activity [1]: Active
Structure (SMILES): CC(C)C(=O)NCCS(=O)(=O)c1ccc(C(F)(F)F)cn1

Activity [1]: Active
Structure (SMILES): CCN(CCS(=O)(=O)c1ccc(C(F)(F)F)cn1)C(=O)c1ccc2ccccc2c1

Activity [1]: Active
Structure (SMILES): O=C(NCCS(=O)(=O)c1ccc(C(F)(F)F)cn1)C12CC3CC(CC(C3)C1)C2

Activity [13]: Active
Activity [1]: Active
Activity [2]: Active
IC50 [14]: 1930 nM
IC50 [3]: 930 nM
IC50 [4]: 751 nM
IC50 [5]: 448 nM
IC50 [6]: 320 nM
Activity [8]: inactive
Activity [9]: Active
Activity [10]: inactive
Activity [11]: Active
Activity [12]: Active
Structure (SMILES): O=C(NCCS(=O)(=O)c1ccc(C(F)(F)F)cn1)c1ccc2ccccc2c1

Activity [1]: Active
Structure (SMILES): O=C(NCCS(=O)(=O)c1ccc(C(F)(F)F)cn1)c1ccc2ccccc2n1

Activity [1]: Active
Structure (SMILES): O=C(NCCS(=O)(=O)c1ccc(C(F)(F)F)cn1)c1ccc2cnccc2c1

IC50 [14]: 29 nM
IC50 [3]: 30.4 nM
IC50 [4]: 32.7 nM
IC50 [5]: 37 nM
IC50 [6]: 40.1 nM
IC50 [7]: 48 nM
Structure (SMILES): CN1CCN(c2ccc(/C=C(\C#N)c3ccccc3Br)cc2)CC1

Activity [1]: Active
Structure (SMILES): O=C(NCCS(=O)(=O)c1ccc(C(F)(F)F)cn1)c1cccc2ncccc12

Activity [1]: Active
Structure (SMILES): O=C(NCCS(=O)(=O)c1ccc(C(F)(F)F)cn1)c1cccc2ccncc12

Activity [1]: Active
Activity [2]: Active
Structure (SMILES): O=C(NCCS(=O)(=O)c1ccc(C(F)(F)F)cn1)c1nccc2ccccc12

Activity [2]: Active
IC50 [14]: 4220 nM
IC50 [3]: 1960 nM
IC50 [4]: 1530 nM
IC50 [5]: 907 nM
IC50 [6]: 598 nM
IC50 [7]: 271 nM
Activity [8]: inactive
Activity [9]: Active
Activity [10]: inactive
Activity [11]: Active
Activity [12]: Active
Structure (SMILES): O=C(NCCS(=O)(=O)c1ccc(C(F)(F)F)cn1)c1ccc2c(c1)CCCC2

Activity [1]: Active
Activity [2]: Active
Structure (SMILES): O=C(NCCS(=O)(=O)c1ccc(C(F)(F)F)cn1)c1cccc2c1CCCC2
